Data as given in paper PMC9757746 (Science Advances, 2022).

Legend:
Type in all cases: biochemical
[1] = target: T1, Cys4 (C. albicans CBS) (Candida albicans, UniProt Q59T95); experiment: H2S generation, lead acetate, A390; settings: 10 mM L-cysteine, 10 mM L-homocysteine, 50 μM PLP, 200 mM Na/bicine pH 8.6, 37 °C; 10 min preincubation
T1 sequence (Q59T95 1-496): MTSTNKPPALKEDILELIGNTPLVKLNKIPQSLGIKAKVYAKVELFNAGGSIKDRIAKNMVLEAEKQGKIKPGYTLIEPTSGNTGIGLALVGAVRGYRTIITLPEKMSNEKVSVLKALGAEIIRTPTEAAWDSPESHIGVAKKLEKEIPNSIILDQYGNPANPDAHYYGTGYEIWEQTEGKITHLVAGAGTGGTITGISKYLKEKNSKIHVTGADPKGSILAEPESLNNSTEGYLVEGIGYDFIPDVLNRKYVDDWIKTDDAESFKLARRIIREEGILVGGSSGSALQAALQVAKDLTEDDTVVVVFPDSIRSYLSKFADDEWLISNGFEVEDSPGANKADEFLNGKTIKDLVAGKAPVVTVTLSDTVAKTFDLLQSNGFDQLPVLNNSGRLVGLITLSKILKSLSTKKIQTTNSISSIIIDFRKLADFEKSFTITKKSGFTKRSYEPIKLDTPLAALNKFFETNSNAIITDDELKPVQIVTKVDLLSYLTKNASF

[2] = target: T1, Cys4 (C. albicans CBS); experiment: H2S generation, lead acetate, A390; settings: 10 mM L-cysteine, 10 mM L-homocysteine, 50 μM PLP, 200 mM Na/bicine pH 8.6, 37 °C; screening hit
[3] = target: T2, cCBS-cc (Candida albicans, UniProt Q59T95); experiment: H2S generation inhibition; settings: catalytic core
T2 sequence (Q59T95 1-319): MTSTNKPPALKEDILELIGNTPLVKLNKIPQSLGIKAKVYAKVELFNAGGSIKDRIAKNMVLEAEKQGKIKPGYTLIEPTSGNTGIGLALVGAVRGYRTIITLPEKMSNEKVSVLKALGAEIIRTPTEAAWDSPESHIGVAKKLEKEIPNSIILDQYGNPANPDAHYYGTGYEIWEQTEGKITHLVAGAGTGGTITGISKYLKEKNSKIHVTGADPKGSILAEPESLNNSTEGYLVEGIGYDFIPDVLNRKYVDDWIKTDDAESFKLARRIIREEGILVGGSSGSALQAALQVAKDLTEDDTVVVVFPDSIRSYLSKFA

[4] = target: T3, human CBS (Homo sapiens, UniProt P35520); experiment: CBS activity inhibition; settings: weaker inhibition than of fungal CBS
T3 sequence (P35520 1-551): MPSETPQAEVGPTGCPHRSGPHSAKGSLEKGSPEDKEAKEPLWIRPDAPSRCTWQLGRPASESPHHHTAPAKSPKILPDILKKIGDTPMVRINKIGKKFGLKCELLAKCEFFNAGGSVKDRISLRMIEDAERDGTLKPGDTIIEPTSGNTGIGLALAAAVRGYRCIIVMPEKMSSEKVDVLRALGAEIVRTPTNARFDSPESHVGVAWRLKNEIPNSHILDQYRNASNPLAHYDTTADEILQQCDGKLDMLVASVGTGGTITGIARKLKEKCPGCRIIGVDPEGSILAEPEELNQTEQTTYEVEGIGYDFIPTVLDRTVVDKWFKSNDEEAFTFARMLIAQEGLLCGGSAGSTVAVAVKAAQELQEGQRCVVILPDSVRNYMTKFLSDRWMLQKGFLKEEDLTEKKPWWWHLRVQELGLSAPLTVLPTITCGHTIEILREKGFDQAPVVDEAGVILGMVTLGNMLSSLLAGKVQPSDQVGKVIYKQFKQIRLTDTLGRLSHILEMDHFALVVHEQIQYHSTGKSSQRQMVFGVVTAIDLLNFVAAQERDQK

[5] = target: T4, Cys3 (C. albicans CSE) (Candida albicans, UniProt Q5A362); experiment: CSE activity inhibition; settings: weaker inhibition than of CBS
T4 sequence (Q5A362 1-399): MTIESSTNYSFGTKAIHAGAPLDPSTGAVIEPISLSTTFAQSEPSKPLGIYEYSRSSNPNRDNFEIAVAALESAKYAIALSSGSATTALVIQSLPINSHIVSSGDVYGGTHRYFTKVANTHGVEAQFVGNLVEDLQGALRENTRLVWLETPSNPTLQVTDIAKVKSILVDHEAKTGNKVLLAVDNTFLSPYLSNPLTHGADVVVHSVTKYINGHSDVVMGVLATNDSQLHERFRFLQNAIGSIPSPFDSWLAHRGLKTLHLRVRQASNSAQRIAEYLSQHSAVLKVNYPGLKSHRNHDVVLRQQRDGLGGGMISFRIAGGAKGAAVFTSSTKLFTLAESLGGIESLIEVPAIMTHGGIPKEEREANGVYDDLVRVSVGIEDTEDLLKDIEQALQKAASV

NOCC(=O)O [Aminooxyacetate]
dose-dependent inhibition [1]: Dose-dependent inhibition of C. albicans CBS activity by PA and AOA

Cc1cc(O)cc2oc(=O)c3c(O)cc(O)cc3c12 [alternariol]
H2S generation, lead acetate, A390 [2]: several hits that displayed much better activity than AOA, including PA

C=C1C(=O)O[C@@H](CCCCCCCCCCCCC)[C@@H]1C(=O)O [protolichesterinic acid]
H2S generation inhibition [3]: still maintains potent ability to generate H2S and is inhibited by PA (fig. S24)
CBS activity inhibition [4]: fungal CBS more potently than human CBS (fig. S19)
CSE activity inhibition [5]: it inhibited CBS more potently than CSE (fig. S18)

CC(=O)c1c(O)c(C)c(O)c2c1OC1=CC(=O)C(C(C)=O)C(=O)C12C (stereo not drawn) [usnic acid]
H2S generation, lead acetate, A390 [2]: alternariol, and usnic acid (Fig. 5A and fig. S17)
